Assay results as given in patent US8785493B2, “Treatment of retroviral reservoirs exploiting oxidative stress” (Istituto Superiore di Sanita, priority 2008, dated 2014).
pIC50: −log10 of the molar value. Where two headings read alike, the source gives them in different places.

Legend:
[1] = system: HIV-1 LTR in Jurkat A1 cells; format: cell-based
[2] = system: HIV-1 replication in latently HIV-1 infected lymphocytic ACH-2 cells; format: cell-based; settings: for Induction of HIV-1 replication by the agent alone, ACH-2 cells: data not shown
[3] = system: HIV-1 replication in latently HIV-1 infected monocytoid U1 cells; format: cell-based
[4] = molecular target: mouse HDAC1 (Mus musculus, UniProt O09106); test: Mouse HDAC1 enzyme assay; format: biochemical
Experimental: Mouse HDAC1 Enzyme Assay. […] HDAC activity was determined using [^3H]acetate-prelabelled chicken reticulocyte histones as the substrate. Mouse HDAC1 (50 microL) was incubated with different concentrations of compounds for 15 min on ice, and 10 μL of total [^3H]acetate-prelabelled chicken reticulocyte histones (2 mg/mL) were added, resulting in a concentration of 41 microM. The mixture was incubated at 37° C. for 1 h. The reaction was stopped by the addition of 50 microL of 1 M HCl/0.4 M acetylacetate and 1 mL ethyl acetate. After centrifugation at 10 000 g for 5 min, an aliquot of 600 microL of the upper phase was counted for radioactivity in a 3 mL liquid scintillation cocktail [Mai et al., 2006].

[5] = system: HDACs; test: HDAC class selectivity (HDACs inhibited); format: biochemical; settings: Class 1 selective or NS (non-selective)
[6] = molecular target: IP HDAC4 (Homo sapiens, UniProt P56524); format: biochemical
Experimental: (§1) Cell-Based Human HDAC1 and HDAC4 Assays. […] Then, 1000 micrograms of extracts were diluted in IP buffer up to 1 mL and pre-cleared by incubating with 20 microL of A/G plus Agarose (Santa Cruz) for 30 min to 1 h on a rocking table at 4° C. Supernatants were transferred into a new tube, and the antibodies (around 3 to 4 μg) were added and IP was allowed to proceed overnight at 4° C. on a rocking table. The antibodies used were HDAC1 (Abcam) and HDAC4 (Sigma). As the negative control, the same amount of protein extracts were immunoprecipitated with the corresponding purified IgG (Santa Cruz). On the next day, 20 microL of A/G and Agarose (Santa Cruz) were added to each IP, and incubation was continued for 2 h. The beads were recovered by brief centrifugation and washed with cold IP buffer several times. The samples were than washed twice in PBS and re-suspended in 20 microL of sterile PBS. The HDAC assay was carried out according to the supplier's instructions (Upstate). Briefly, samples immunoprecipitated with the HDAC4 and HDAC1 or with purified IgG were pooled separately to homogenise all samples. Then, 10 microL of the IP was incubated with a previously labelled ^3H-Histone H4 peptide linked with streptavidine agarose beads (Upstate). In detail, 120 000 CPM of the H4-^3H-acetyl-peptide was used for each tube and incubated in 1 HDAC buffer with 10 microL of the sample in the presence or absence of HDAC inhibitors with a final volume of 200 μL. Those samples were incubated overnight at 37° C. in slow rotation. On the next day, 50 μL of a quenching solution was added, and 100 microL of the samples were counted in duplicate after brief centrifugation in a scintillation counter.

[7] = molecular target: Maize HD1-B (Zea mays, UniProt Q9ZTP8); test: Maize HD1-B enzyme inhibition in vitro; format: biochemical
Experimental: (§2) Maize HD2, HD1-B, and HD1-A Enzyme Inhibition in Vitro. Radioactively labelled chicken core histones were used as the enzyme substrate according to established procedures [referenced in: Mai et al., 2006]. The enzyme liberated tritiated acetic acid from the substrate, which was quantified by scintillation counting. The IC50 values are the results of triple determinations. A 50 μL sample of maize enzyme (at 30° C.) was incubated (30 min) with 10 microL of total [^3H]acetate-prelabelled chicken reticulocyte histones (2 mg/mL). The reaction was stopped by the addition of 36 microL of 1 M HCl/0.4 M acetate and 800 microL of ethyl acetate. After centrifugation (10 000 g, 5 min), an aliquot of 600 microL of the upper phase was counted for radioactivity in 3 mL of liquid scintillation cocktail. The compounds were tested at a starting concentration of 40 microM, and active substances were diluted further. TSA and SAHA were used as the reference compounds, and blank solvents were used as negative controls [Mai et al. 2006].

[8] = system: Non-infected H9 and U937, HIV-1 infected H9IIIB, ACH-2 and U1 cells; test: Selective killing, MTT cell viability, infected versus non-infected cells; format: cell-based; settings: seven days
Text: Cell viability assay. Cell viability was quantitated using the highly standardised methyl tetrazolium (MTT) procedure (described in detail in: Savarino A, Calosso L, Piragino A, Martini C, Gennero L, Pescarmona G P, Pugliese A. Modulation of surface transferrin receptors in lymphoid cells de novo infected with human immunodeficiency virus type-1. Cell Biochem Funct. 1999 March; 17(1):47-55). Absorbance values were generated at a wavelength of 450 nm using 96-well ELISA readers and subtracted of the blank values using cell culture media in the absence of cells. Cell viability in the presence of the test compounds was expressed as a percentage of the cell viability of control untreated cell cultures. For testing of selective killing, Non-infected H9, and U937, and HIV-1 infected HIIIB, ACH-2, and U1 cells were incubated with the test compounds for seven days, and cell viability was measured as described above.

[9] = molecular target: IP HDAC1 (Homo sapiens, UniProt Q13547); test: Human HDAC1 assay on immunoprecipitate (IP) from U937 cells; format: biochemical
Experimental: as §1

[10] = molecular target: Maize HD1-A (Zea mays, UniProt Q7XAX9); test: Maize HD1-A enzyme inhibition in vitro; format: biochemical
Experimental: as §2

[11] = system: latent HIV-1; settings: cited from earlier work
[12] = system: HIV-1 LTR in quiescently infected Jurkat 8.4 cells; test: HIV-1 LTR-controlled GFP expression, flow cytometry, Jurkat clone 8.4; format: cell-based; settings: for LTR-controlled GFP expression, Jurkat 8.4 cells: 72 h, gated live cells
[13] = system: our cell lines; test: Toxicity of auranofin to the cell lines used; format: cell-based; settings: concentrations approx. two orders of magnitude superior to those of the present study, data not shown
Text: Cell viability assay. Cell viability was quantitated using the methyl tetrazolium (MTT) procedure. Absorbance values were generated at a wavelength of 550 nm using 96-well ELISA readers and subtracted of the blank values using cell culture media in the absence of cells. Cell viability in the presence of the test compounds was expressed as a percentage of the cell viability of control untreated cell cultures.

[14] = system: NF-kappaB (p65/p50) in Jurkat 8.4 cells; test: NF-kappaB nuclear translocation, colorimetric p65 assay; format: cell-based; set-up: dose or concentration left out as unconfirmed; settings: auranofin, different incubation times, relative to TNF-alpha 1.5 h
Experimental: Detection of NF-kappaB nuclear translocation. Nuclear extracts from control Jurkat 8.4 cells and cells treated with auranofin at different times of incubation were obtained using a nuclear extraction kit (Chemicon International), following the Manufacturer's instructions. NF-kappaB nuclear translocation was detected using a colorimetric transcription factor assay (Millipore) for the p65 subunit. Results were expressed as a percentage of the signal obtained in cells incubated with the potent NF-kappaB stimulating cytokine TNF-alpha (5 ng/ml) for 1.5 h, at which the peak of nuclear translocation of NF-kappaB is reached.

Sequence of Maize HD1-A (Q7XAX9 entry or part of it): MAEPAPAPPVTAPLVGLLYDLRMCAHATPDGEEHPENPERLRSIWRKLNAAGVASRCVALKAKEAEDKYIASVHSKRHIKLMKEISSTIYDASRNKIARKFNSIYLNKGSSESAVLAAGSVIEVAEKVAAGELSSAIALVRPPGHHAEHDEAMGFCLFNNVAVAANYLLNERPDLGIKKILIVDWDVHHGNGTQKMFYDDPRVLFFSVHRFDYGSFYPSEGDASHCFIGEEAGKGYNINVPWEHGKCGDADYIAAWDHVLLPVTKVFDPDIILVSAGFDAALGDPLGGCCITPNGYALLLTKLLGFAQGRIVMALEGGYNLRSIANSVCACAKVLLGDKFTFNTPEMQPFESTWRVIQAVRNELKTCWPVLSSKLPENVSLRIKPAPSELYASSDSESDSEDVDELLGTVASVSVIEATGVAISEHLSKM
Sequence of Maize HD1-B (Q9ZTP8 entry or part of it): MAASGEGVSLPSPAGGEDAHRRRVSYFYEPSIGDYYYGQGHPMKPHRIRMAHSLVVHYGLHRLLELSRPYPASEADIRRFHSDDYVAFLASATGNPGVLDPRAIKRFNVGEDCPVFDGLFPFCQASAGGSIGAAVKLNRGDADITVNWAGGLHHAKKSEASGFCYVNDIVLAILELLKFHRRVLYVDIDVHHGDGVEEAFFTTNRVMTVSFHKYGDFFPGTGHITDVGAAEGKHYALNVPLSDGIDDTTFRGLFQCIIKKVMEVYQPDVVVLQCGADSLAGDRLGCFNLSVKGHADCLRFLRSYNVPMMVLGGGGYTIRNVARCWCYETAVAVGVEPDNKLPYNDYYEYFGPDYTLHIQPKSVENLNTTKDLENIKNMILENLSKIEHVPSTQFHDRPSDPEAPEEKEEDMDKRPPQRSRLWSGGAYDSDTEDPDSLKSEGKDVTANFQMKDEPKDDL
Sequence of mouse HDAC1 (O09106 whole entry): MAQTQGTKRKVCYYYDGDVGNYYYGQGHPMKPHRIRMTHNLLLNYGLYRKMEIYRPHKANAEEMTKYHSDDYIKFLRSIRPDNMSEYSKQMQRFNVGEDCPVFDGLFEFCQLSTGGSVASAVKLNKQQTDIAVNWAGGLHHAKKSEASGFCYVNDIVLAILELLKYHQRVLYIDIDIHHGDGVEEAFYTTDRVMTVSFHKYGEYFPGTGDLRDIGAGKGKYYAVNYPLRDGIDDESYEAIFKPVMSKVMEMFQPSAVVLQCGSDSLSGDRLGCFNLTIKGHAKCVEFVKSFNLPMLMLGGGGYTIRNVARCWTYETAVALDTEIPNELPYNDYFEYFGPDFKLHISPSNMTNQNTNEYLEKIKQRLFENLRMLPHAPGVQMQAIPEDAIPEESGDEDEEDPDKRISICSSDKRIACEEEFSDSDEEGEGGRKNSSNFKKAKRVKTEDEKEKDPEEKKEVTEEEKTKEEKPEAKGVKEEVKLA
Sequence of IP HDAC1 (Q13547 whole entry): as the sequence (O09106 whole entry) above, with K8R, E399D, D424E counted along it
Sequence of IP HDAC4 (P56524 whole entry): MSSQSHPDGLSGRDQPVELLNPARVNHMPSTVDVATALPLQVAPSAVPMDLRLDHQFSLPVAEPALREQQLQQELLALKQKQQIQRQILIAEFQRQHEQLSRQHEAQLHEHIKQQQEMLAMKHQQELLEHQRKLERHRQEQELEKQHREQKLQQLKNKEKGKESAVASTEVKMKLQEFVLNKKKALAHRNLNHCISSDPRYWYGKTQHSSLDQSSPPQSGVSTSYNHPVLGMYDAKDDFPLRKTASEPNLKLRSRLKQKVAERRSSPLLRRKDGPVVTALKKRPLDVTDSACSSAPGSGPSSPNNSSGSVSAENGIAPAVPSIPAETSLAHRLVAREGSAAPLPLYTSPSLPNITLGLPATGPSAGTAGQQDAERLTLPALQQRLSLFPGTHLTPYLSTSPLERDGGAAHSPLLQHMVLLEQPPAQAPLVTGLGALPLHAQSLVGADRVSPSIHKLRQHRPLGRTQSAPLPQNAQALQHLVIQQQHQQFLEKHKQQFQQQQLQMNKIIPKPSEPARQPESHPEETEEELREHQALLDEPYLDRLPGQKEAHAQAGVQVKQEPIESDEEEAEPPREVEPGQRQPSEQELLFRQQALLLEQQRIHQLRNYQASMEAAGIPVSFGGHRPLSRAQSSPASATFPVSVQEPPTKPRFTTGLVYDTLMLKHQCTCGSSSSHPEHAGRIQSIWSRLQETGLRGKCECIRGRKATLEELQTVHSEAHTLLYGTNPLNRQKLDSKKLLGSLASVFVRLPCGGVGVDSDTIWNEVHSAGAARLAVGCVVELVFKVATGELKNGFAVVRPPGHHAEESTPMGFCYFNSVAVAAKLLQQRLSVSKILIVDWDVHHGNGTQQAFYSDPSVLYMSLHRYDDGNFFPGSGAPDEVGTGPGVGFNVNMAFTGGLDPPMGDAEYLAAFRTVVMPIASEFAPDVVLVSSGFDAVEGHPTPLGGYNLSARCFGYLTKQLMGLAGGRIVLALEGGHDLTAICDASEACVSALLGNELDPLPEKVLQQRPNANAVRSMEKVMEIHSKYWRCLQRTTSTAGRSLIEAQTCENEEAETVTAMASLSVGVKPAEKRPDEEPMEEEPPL

| Compound | pIC50 [4] | HDACs inhibited [5] | inhibition at 5 µM [6] [%] | pIC50 [7] | inhibition at 5 µM [9] [%] | pIC50 [10] | also measured |
| --- | --- | --- | --- | --- | --- | --- | --- |
| CCCCS(=N)(=O)CCC(N)C(=O)O (stereo not shown) [BSO, buthionine sulfoximine] | – | – | – | – | – | – | GFP expression in combination with HDACi (MS-275), Jurkat A1 cells ([1]; 72 h): recruited HDACi-insensitive cells into the responding cell population; LTR-controlled GFP expression, Jurkat A1 cells ([1]; 72 h): induced LTR activation in a small proportion of cells; Induction of HIV-1 replication by the agent alone, ACH-2 cells ([2]; concentrations up to 500 μM): had no effect; Induction of HIV-1 replication by the agent alone, ACH-2 cells [2]: did not significantly induce HIV-1 replication; Induction of HIV-1 replication by the agent alone, U1 cells ([3]; data not shown): did not significantly induce HIV-1 replication |
| O=C([O-])CN(CC(=O)[O-])CC(=O)[O-].[Fe+3] [FeNTA, iron nitriloacetate] | – | – | – | – | – | – | Induction of HIV-1 replication by the agent alone, ACH-2 cells [2]: dose-dependently induced HIV-1 replication |
| O=C(/C=C/c1ccc(NC(=O)C(c2ccccc2)c2ccccc2)cc1)NO [MC 1855] | 6.89 | Class 1 | 0 | 6.79 | 78.7 | 7.26 | Selective killing of HIV-1 infected cells versus uninfected counterparts [8]: selective killing of HIV-1-infected cells |
| CC(C(=O)Nc1ccc(/C=C/C(=O)NO)cc1)c1ccccc1 (stereo not shown) [MC 1857] | 6.54 | – | – | 7.14 | 79.3 | 7.10 | – |
| CCC(C(=O)Nc1ccc(/C=C/C(=O)NO)cc1)c1ccccc1 (stereo not shown) [MC 1864] | 6.52 | – | 60.4 | 7.05 | 55 | 7.19 | – |
| O=C(/C=C/c1ccc(NC(=O)C(Cc2ccccc2)c2ccccc2)cc1)NO (stereo not shown) [MC 1895, 3-[4-(2,3-Diphenylpropionylamino)phenyl]-N-hydroxy-2-propenamide] | 7.08 | Class 1 | 16.1 | 6.88 | 72.5 | 7.13 | – |
| CCC(C(=O)Nc1ccc(/C=C/C(=O)NO)cc1)c1cccc2ccccc12 (stereo not shown) [MC 2111] | 6.21 | Class 1 | 0 | 7.24 | 73.6 | 7.38 | – |
| CCC(C(=O)Nc1ccc(/C=C/C(=O)NO)cc1)c1ccc2ccccc2c1 (stereo not shown) [MC 2113] | 6.25 | Class 1 | 22.4 | 7.21 | 64.9 | 7.16 | – |
| CC(C)C(C(=O)Nc1ccc(C(=O)NO)cn1)c1ccccc1 (stereo not shown) [MC 2195] | 7.16 | Class 1 | 93.1 | 7.96 | 46.7 | 8.10 | – |
| Nc1ccccc1NC(=O)c1ccc(CNC(=O)OCc2cccnc2)cc1 [MS 275] | – | Class 1 | – | – | 65.4 | – | Concentration range of activity in inducing HIV-1 escape from latency, ACH-2 cells ([2]; day 3, concentration-response 0.001-1 μM): nanomolar range; Combined HIV-1 promoting effect of HDACi with BSO, ACH-2 cells ([2]; percentage-of-synergism graph, three days): synergistic effect; Concentration range of activity in inducing HIV-1 escape from latency, U1 cells ([3]; not shown): nanomolar range |
| O=C(CCCCCCC(=O)Nc1ccccc1)NO [SAHA, suberoylanilide hydroxamic acid] | – | – | – | – | – | – | LTR-controlled GFP expression, Jurkat A1 cells ([1]; 72 h): induction of LTR-controlled expression of green-fluorescent protein (GFP) |
| CCCC(CCC)C(=O)O [VA, valproic acid] | – | – | – | – | – | – | EC50, HIV-1 escape from latency [11]: millimolar range |
| N.N.[Cl][Pt][Cl] [cisplatin] | – | – | – | – | – | – | Concentration range activating latent HIV-1 ([1]; cell line models for HIV-1 latency): nanomolar range; Concentration range activating quiescent HIV-1 ([11]; Spandidos et al., 1990): micromolar |
| arsenic trioxide | – | – | – | – | – | – | LTR-controlled GFP expression, Jurkat 8.4 cells [12]: dose-dependent shift in fluorescence; LTR-controlled GFP expression, Jurkat A1 cells ([1]; 72 h): increased in response to arsenic trioxide in a concentration-dependent manner |
| gold(1+); 3,4,5-triacetyloxy-6-(acetyloxymethyl)oxane-2-thiolate; triethylphosphanium [auranofin] | – | – | – | – | – | – | LTR-controlled GFP expression, Jurkat 8.4 cells [12]: dose-dependent shift in fluorescence; GFP expression in combination with HDACI (MC2113), Jurkat 8.4 cells ([12]; auranofin 0.25 microM plus MC2113 1 microM): recruited the HDACi-unresponsive cells into the responding cell population; Toxicity to cell lines [13]: toxic to our cell lines; NF-kappaB (p65) in nuclear extracts [14]: time-dependent NF-kappaB accumulation within the nuclei; LTR-controlled GFP expression, Jurkat A1 cells ([1]; 72 h): induction of LTR-controlled expression of green-fluorescent protein (GFP); Effect on HIV-1 replication (p24), ACH-2 cells ([2]; 0.125-0.5 μM, 24 h and 72 h): increased HIV-1 replication in a time- and dose-dependent manner; Combined HIV-1 activating effect with BSO, ACH-2 cells ([2]; auranofin plus BSO, percentage-of-synergism surface, three days): synergistic HIV-1 activating effects; Combined HIV-1 activating effect with FeNTA, ACH-2 cells ([2]; percentage-of-synergism surface, three days): synergistic HIV-1 activating effects; Effect on HIV-1 replication (p24), U1 cells ([3]; 0.125-0.5 μM, 24 h and 72 h): increased HIV-1 replication in a time- and dose-dependent manner; Combined HIV-1 activating effect with MC2113, U1 cells ([3]; auranofin 0.25 μM plus MC2113 1 μM, 24 h): synergistic |
